Measured values as given in patent publication US9302999B2, “Substituted triazoles as herbicides” (E. I. DU PONT DE NEMOURS AND COMPANY, priority 2012, dated 2016).

How the values were obtained:
Type in all cases: in vivo
[1] = system: Field Poppy (PAPRH, Papaver rhoeas); assay: Test H post-emergence, alone and in combination: Field Poppy
Source text: (§1) Seeds of plant species selected from wheat (TRZAW, Triticum aestivum), barley (HORBW, Hordeum vulgare), Kochia (KCHSC, Kochia caoparia) blackgrass (ALOMY, Alopecurus myosuroides), canarygrass (PHAMI, Phalaris minor), Italian ryegrass (LOLMU, Lolium multiflorum) common lambsquarter (CHEAL, Chenopodium album), pigweed (AMARE, Amaranthus retroflexus), Common Chickweed (STEME, Stellaria media), Russian thistle (SASKR, Salsola iberica), Wild Buckwheat (POLCO, Polygonum convolvulus), Catchweed Bedstraw (GALAP, Galium aparine), Mustard (SINAR, Sinapisar arvensis), Henbit Deadnettle (LAMAM, Lamium amplexicaule), Wild Radish (RAPRA, Raphanus raphanistrum), Field Poppy (PAPRH, Papaver rhoeas), Field Violet (VIOAR, Viola arvennsis), Scentless Chamomile (MATIN Matricaria inodora) were planted into soil and treated post-emergence with test chemicals formulated in a non-phytotoxic solvent mixture. Plants were grown in a greenhouse using supplemental lighting to maintain a photoperiod of approximately 14 hours; daytime and nighttime temperatures were approximately 23°-29° and 16°-19° Celsius, respectively. Balanced fertilizer was applied through the watering system. Treated plants and controls were maintained in a greenhouse for 20 days, after which time all species were compared to controls and visually evaluated. Plant response ratings were calculated as the mean of three replicates (unless otherwise indicated), are summarized in Table G, and are based on a scale of 0 to 100 where 0 is no effect and 100 is complete control. A dash (-) response means no test result.

[2] = system: Henbit Deadnettle (LAMAM, Lamium amplexicaule); assay: Test H post-emergence, alone and in combination: Henbit Deadnettle
Source text: as §1

[3] = system: wheat (TRZAW, Triticum aestivum); assay: Test H post-emergence, alone and in combination: wheat
Source text: as §1

[4] = system: Kochia (KCHSC, Kochia caoparia); assay: Test H post-emergence, alone and in combination: Kochia
Source text: as §1

[5] = system: Russian thistle (SASKR, Salsola iberica); assay: Test H post-emergence, alone and in combination: Russian thistle
Source text: as §1

[6] = system: canarygrass (PHAMI, Phalaris minor); assay: Test H post-emergence, alone and in combination: canarygrass
Source text: as §1

[7] = system: common lambsquarter (CHEAL, Chenopodium album); assay: Test H post-emergence, alone and in combination: common lambsquarter
Source text: as §1

[8] = system: Common Chickweed (STEME, Stellaria media); assay: Test H post-emergence, alone and in combination: Common Chickweed
Source text: as §1

[9] = system: pigweed (AMARE, Amaranthus retroflexus); assay: Test H post-emergence, alone and in combination: pigweed
Source text: as §1

[10] = system: Italian ryegrass (LOLMU, Lolium multiflorum); assay: Test H post-emergence, alone and in combination: Italian ryegrass
Source text: as §1

[11] = system: Field Violet (VIOAR, Viola arvennsis); assay: Test H post-emergence, alone and in combination: Field Violet
Source text: as §1

[12] = system: blackgrass (ALOMY, Alopecurus myosuroides); assay: Test H post-emergence, alone and in combination: blackgrass
Source text: as §1

[13] = system: Mustard (SINAR, Sinapisar arvensis); assay: Test H post-emergence, alone and in combination: Mustard
Source text: as §1

[14] = system: Wild Radish (RAPRA, Raphanus raphanistrum); assay: Test H post-emergence, alone and in combination: Wild Radish
Source text: as §1

[15] = system: barley (HORBW, Hordeum vulgare); assay: Test H post-emergence, alone and in combination: barley
Source text: as §1

[16] = system: Wild Buckwheat (POLCO, Polygonum convolvulus); assay: Test H post-emergence, alone and in combination: Wild Buckwheat
Source text: as §1

[17] = system: Scentless Chamomile (MATIN Matricaria inodora); assay: Test H post-emergence, alone and in combination: Scentless Chamomile
Source text: as §1

[18] = system: Catchweed Bedstraw (GALAP, Galium aparine); assay: Test H post-emergence, alone and in combination: Catchweed Bedstraw
Source text: as §1

[19] = system: barnyardgrass (ECHCG, Echinochloa crus-galli); assay: Test G paddy, alone and in combination: barnyardgrass; details: Rate 125 g/ha; evaluated after 14 days
Protocol: (§2) Seeds of smallflower umbrella sedge (CYPDI, Cyperus difformis) and ducksalad (HETLI, Heteranthera limosa) were sown on the soil surface in two separate quadrants of 11 cm tubs filled with steam pasteurized Tama soil. Simultaneously, plantings of barnyardgrass (ECHCG, Echinochloa crus-galli) and japonica rice (ORYSP, Oryza sativa) were established in separate “plug” flats. Plants were grown in a greenhouse using supplemental lighting to maintain a photoperiod of approximately 16 h; daytime and nighttime temperatures were approximately 27-30° C. and 19-22° C., respectively. After 8 days, barnyardgrass plants were transplanted to one of the remaining quadrants of the tub, and the water level was adjusted to a final depth of 3 cm. Herbicide application timing was targeted at the 2.0 to 2.5 leaf stage and the plants were treated with test chemicals formulated in a non-phytotoxic solvent. Treated plants and controls were maintained in a greenhouse for 14 days, after which time all species were compared to controls and visually evaluated. Plant response ratings are summarized in Tables G1 through G3, and are based on a scale of 0 to 100 where 0 is no effect and 100 is complete control. A dash (-) response means no test result.

[20] = system: smallflower umbrella sedge (CYPDI, Cyperus difformis); assay: Test G paddy, alone and in combination: smallflower umbrella sedge; details: Rate 125 g/ha; evaluated after 14 days
Protocol: as §2

[21] = system: ducksalad (HETLI, Heteranthera limosa); assay: Test G paddy, alone and in combination: ducksalad; details: Rate 125 g/ha; evaluated after 14 days
Protocol: as §2

[22] = system: japonica rice (ORYSP, Oryza sativa); assay: Test G paddy, alone and in combination: japonica rice; details: Rate 125 g/ha; evaluated after 14 days
Protocol: as §2

For `COC(=O)c1sccc1S(=O)(=O)NC(=O)Nc1nc(C)nc(OC)n1` [b2c, thifensulfuron-methyl], the PAPRH plant response ([1]; Rate 8) was 70, the PAPRH plant response ([1]; Rate 16) was 75 and the PAPRH plant response ([1]; Rate 31) was 100. For the same molecule, the PAPRH plant response ([1]; Rate 62) was 100, the LAMAM plant response ([2]; Rate 8) was 60 and the LAMAM plant response ([2]; Rate 16) was 70. For the same molecule, the LAMAM plant response ([2]; Rate 31) was 75, the LAMAM plant response ([2]; Rate 62) was 75 and the TRZAW plant response ([3]; Rate 8) was 0. For the same molecule, the TRZAW plant response ([3]; Rate 16) was 0, the TRZAW plant response ([3]; Rate 31) was 0 and the TRZAW plant response ([3]; Rate 62) was 5. The KCHSC plant response ([4]; Rate 8) was 70, the KCHSC plant response ([4]; Rate 16) was 85 and the KCHSC plant response ([4]; Rate 31) was 95. The KCHSC plant response ([4]; Rate 62) was 100, the SASKR plant response ([5]; Rate 8) was 100 and the SASKR plant response ([5]; Rate 16) was 100. The SASKR plant response ([5]; Rate 31) was 100, the SASKR plant response ([5]; Rate 62) was 100 and the PHAMI plant response ([6]; Rate 8) was 10. For the same molecule, the PHAMI plant response ([6]; Rate 16) was 60, the PHAMI plant response ([6]; Rate 31) was 70 and the PHAMI plant response ([6]; Rate 62) was 90. It also gave a CHEAL plant response ([7]; Rate 8) of 85, a CHEAL plant response ([7]; Rate 16) of 70 and a CHEAL plant response ([7]; Rate 31) of 100. For the same molecule, the CHEAL plant response ([7]; Rate 62) was 95, the STEME plant response ([8]; Rate 8) was 85 and the STEME plant response ([8]; Rate 16) was 100. It also gave an STEME plant response ([8]; Rate 31) of 100, an STEME plant response ([8]; Rate 62) of 100 and an AMARI plant response ([9]; Rate 8) of 100. For the same molecule, the AMARI plant response ([9]; Rate 16) was 100, the AMARI plant response ([9]; Rate 31) was 100 and the AMARI plant response ([9]; Rate 62) was 100. For the same molecule, the LOLMU plant response ([10]; Rate 8) was 20, the LOLMU plant response ([10]; Rate 16) was 50 and the LOLMU plant response ([10]; Rate 31) was 70. The LOLMU plant response ([10]; Rate 62) was 90, the VIOAR plant response ([11]; Rate 8) was 80 and the VIOAR plant response ([11]; Rate 16) was 85. For the same molecule, the VIOAR plant response ([11]; Rate 31) was 75, the VIOAR plant response ([11]; Rate 62) was 95 and the ALOMY plant response ([12]; Rate 8) was 10. It also gave an ALOMY plant response ([12]; Rate 16) of 45, an ALOMY plant response ([12]; Rate 31) of 60 and an ALOMY plant response ([12]; Rate 62) of 65. The SINAR plant response ([13]; Rate 8) was 80, the SINAR plant response ([13]; Rate 16) was 90 and the SINAR plant response ([13]; Rate 31) was 85. The SINAR plant response ([13]; Rate 62) was 95, the RAPRA plant response ([14]; Rate 8) was 95 and the RAPRA plant response ([14]; Rate 16) was 75. It also gave an RAPRA plant response ([14]; Rate 31) of 100, an RAPRA plant response ([14]; Rate 62) of 95 and an HORBW plant response ([15]; Rate 8) of 0. It also gave an HORBW plant response ([15]; Rate 16) of 5, an HORBW plant response ([15]; Rate 31) of 5 and an HORBW plant response ([15]; Rate 62) of 5. For the same molecule, the POLCO plant response ([16]; Rate 8) was 95, the POLCO plant response ([16]; Rate 16) was 95 and the POLCO plant response ([16]; Rate 31) was 95. The POLCO plant response ([16]; Rate 62) was 95, the MATIN plant response ([17]; Rate 8) was 95 and the MATIN plant response ([17]; Rate 16) was 90. The MATIN plant response ([17]; Rate 31) was 100, the MATIN plant response ([17]; Rate 62) was 100 and the GALAP plant response ([18]; Rate 8) was 80. For the same molecule, the GALAP plant response ([18]; Rate 16) was 90, the GALAP plant response ([18]; Rate 31) was 75 and the GALAP plant response ([18]; Rate 62) was 95.
`COCCCn1c(-c2cccc(OC)c2)ncc(C(=O)C2=C(O)CCCC2=O)c1=O` [b12a, 5-[(2-hydroxy-6-oxo-1-cyclohexen-1-yl)carbonyl]-2-(3-methoxyphenyl)-3-(3-methoxypropyl)-4(3H)-pyrimidinone] was tested, and the “ECHCG plant response rating (scale of 0 to 100)” value [19] was 35, the “CYPDI plant response rating (scale of 0 to 100)” value [20] was 80 and the “HETLI plant response rating (scale of 0 to 100)” value [21] was 80. For the same molecule, the “ORYSP plant response rating (scale of 0 to 100)” value [22] was 5.
